The conditions of series [1]: in vivo; cited from earlier work.
A further series concerns MOG-induced EAE. The series is described as follows: Prevention of MOG-induced experimental autoimmune encephalomyelitis (EAE). The settings on record: 200 mg/kg IP twice a day plus 300 mg/kg in drinking water. It is filed as in vivo, C3H.SW female mice. As to the method:
EAE was induced in C3H.SW female mice (4-6 weeks old, Harlen, Rehovot, Israel) by immunization with the peptide encompassing amino acids 35-55 of rat myelin oligodendrocyte glycoprotein (MOG). Synthesis was carried out by the Weizmann Institute Synthesis Unit, using a solid-phase technique on a peptide synthesizer (Applied Biosystems Inc., Foster City, Calif. City). Mice were injected subcutaneously at one site in the flank with a 200 μl emulsion containing 75 μg MOG peptide in complete Freund's adjuvant (CFA). An identical booster immunization was given at one site of the other flank one week later. Mice (n=16) were injected intraperitonealy with Compound J (200 mg/kg) twice a day and in addition, were given Compound J orally in the drinking water (300 mg/kg) on day 1 of the MOG injection and for additional 35 days post injection. Control mice (n=16) were injected twice a day with 200 mg of saline for the same time period. 0=no clinical symptom's; 1=loss of tail tonicity; 2=partial hind limb paralysis; 3=complete hind limb paralysis; 4=paralysis of four limbs; 5=total paralysis; 6=death.

Series [2] in a line: Crossing the blood-brain-barrier: compound J level in brain extracts by fluorescent labeling and HPLC. It counts as in vivo, C57BL/6J mice. Conditions: IP injection 0.25-4 mg, brain extracts 15 min later. The method, then:
Detection of compound j (referred to in this Example also as CEA) was established using high performance liquid chromatography (HPLC). To this end, CEA was treated with a fluorescent thiolyte reagent (monobromobimane reagent) and analyzed on an HPLC column.
Crossing the blood-brain-barrier: In vivo experiments were carried out on C57BL/6J mice (15 grams) injected IP with compound J. After incubation (15 min, 60 min or 4 hours) the mice were anesthetized with ether and blood samples were drawn. Then mice underwent perfusion with 50 ml of saline, injected into the right ventricle. The levels of compound I in the brain and in the plasma were detected by selective fluorescent labeling using high performance liquid chromatography (HPLC).
Increasing amounts of compound J were injected IP and 15 min later, mice were perfused with saline and compound J levels in the brain extracts were determined by HPLC chromatography (FIG. 5b), as compared to a control, pure, uninjected compound J (FIG. 5a).

Series [3] relates to Neuroblastoma SHSY5Y (NB) cells. The series is described as follows: Protection from oxidative stress in vitro, neutral red survival assay. Conditions: compound at 0.1 mM. It is filed as cell-based. The method, then: Protection from oxidative stress in vitro: Neuroblastoma SHSY5Y (NB) cells were maintained in Dulbeco's Modified Eagle's Medium (DMEM), supplemented with 8% FCS and 8% horse serum, penicillin (25 μg/ml), streptomycin (25 μg/ml), 2 mM L-glutamine and 400 μg/ml G418 (Gibco/BRL). For protection experiments cells were subcultured (in 2% serum) to poly-L-lysine-coated 96-well microtiter plates (Nunc), 100 μl of 5×10^5 cells/ml, CEA was applied to the cells in each well and 4 hours later DA, L-dopa (levodopa), 6-OHDA and MPP+ were added for 24 hours.
Survival was assayed by adding neutral red (0.34%, Sigma) to cells in DCCM-1 medium (0.1 ml/well, Bet-Haemek) and incubation for 2 hour at 37° C. The cells were then washed with cold PBS containing 10 mM MgCl2 and the dye was dissolved in 50% ethanol in 50% Somerson buffer (70 mM sodium citrate, 30 mM citric acid, 0.1 N HCl). ELISA reader (590 nm) was used to measure the remaining color intensity.

The subject of a further series is GSH. The series is described as follows: Brain GSH levels after IP injection of compound J (HPLC). It counts as in vivo, C57BL/6J mice. Conditions: brain extract after IP injection.
Series [4] deals with endogenous reduced glutathione (GSH). The series is described as follows: In vivo antioxidation: striatum/serum endogenous GSH after IP injection of compound A. Also noted: species or system Balb/c mice. The settings on record: injected IP, 100-300 mg/kg, three hours post injection. The method, then:
With reference now to FIG. 3. To this end, three groups of two months old Balb/c mice containing two animals in each group were injected intraperitonealy (IP) with 100-300 mg/kg body weight of compound A. Blood samples were drawn from the tail three hours post injection and then the animals were sacrificed and either the corpus striatum or the whole brain were removed and analyzed for GSH levels.
GSH levels were determined using the experimental procedures as described hereinbelow and/or the GSH-400 kit (Oxis International, Inc.).
Preparation of brain homogenates: Animals were rapidly killed and exsanguinated to remove excess blood from the brain. The brain of each animal was rinsed in a beaker containing water, lightly blotted to dry and were weighted. The striatums were transferred into a hand-homogenizer tube and each was homogenized using a constant number (e.g., 20) of up and down strokes of the hand-homogenizer pestle. Each of the homogenates was poured into a centrifuge tube and centrifuged for 10,000×g for 5 min. The supernatant was used for GSH determination as follows.
GSHAssay: For each measurement, 200 μl of sample were incubated with 20 μl DTNB [5,5′ dithio bis(2-nitrobenzoic acid)] for 1 hour in 37° C. Final absorbance was measured at 400 nm. Similar results were obtained using the GSH-400 kit. […]

We go through three compounds from patent US20060211628A1 (priority 2002, published 2006).

Regarding `CC(=O)N[C@@H](CS)C(=O)O` [N-acetyl-cysteine], the “lethal dose 50% (LD50)” value in series [1] is recorded as 5,050 mg/kg.
Turning to `CC(=O)NC(CS)C(N)=O` (centres unmarked) [compound J], the “Incidence and clinical severity of the disease” value with MOG-induced EAE was “markedly reduced”. For the same compound, the “Mice remaining disease free” value with MOG-induced EAE (day 1 to 35 days post injection, n=16) is on record as 15 out of the 16. The “Mean of total clinical score (0-6 scale)” value in the series on MOG-induced EAE (n=16, SE) was 0.1+0.1. Also, in series [2], the “Compound J in the brain” value is “concentration-dependent increase”. Besides, the “Protection of NB cells against the toxicity of DA, L-dopa, 6-OHDA (0.1-0.25 mM) and MPP+ (0.5-2 mM)” value in series [3] is “protect”. In addition, the “GSH levels increase over untreated animals” value with GSH is on record as “up to 46%”.
Consider `CCOC(=O)[C@H](CS)NC(C)=O` [compound A, N-acetyl cysteine ethyl ester], for which, in series [4], the “Level of endogenous GSH in striatum” value is “increases”.
